In patent US20080051387A1, “TETRAHYDROPYRIDO[3,4-D]PYRIMIDINES AND RELATED ANALOGUES” (priority 2006, published 2008):

What follows are compounds tested against T1, chimeric human H3 receptor (Homo sapiens, UniProt Q9Y5N1) (assay: Chimeric human H3 receptor GTP binding assay (agonist-stimulated GTP-gamma35S binding, Example 7)). Conditions: P2 membranes of Sf9 cells, 1 μM histamine as agonist, Ki from IC50 by Cheng-Prusoff; read-out: Ki.
T1 construct: rat Galpha-i2 (Gnai2, rat); made in house; host or cells: Sf9 insect cells (baculovirus); P2 membranes
T1 sequence (Q9Y5N1 with tags, fused parts or gaps): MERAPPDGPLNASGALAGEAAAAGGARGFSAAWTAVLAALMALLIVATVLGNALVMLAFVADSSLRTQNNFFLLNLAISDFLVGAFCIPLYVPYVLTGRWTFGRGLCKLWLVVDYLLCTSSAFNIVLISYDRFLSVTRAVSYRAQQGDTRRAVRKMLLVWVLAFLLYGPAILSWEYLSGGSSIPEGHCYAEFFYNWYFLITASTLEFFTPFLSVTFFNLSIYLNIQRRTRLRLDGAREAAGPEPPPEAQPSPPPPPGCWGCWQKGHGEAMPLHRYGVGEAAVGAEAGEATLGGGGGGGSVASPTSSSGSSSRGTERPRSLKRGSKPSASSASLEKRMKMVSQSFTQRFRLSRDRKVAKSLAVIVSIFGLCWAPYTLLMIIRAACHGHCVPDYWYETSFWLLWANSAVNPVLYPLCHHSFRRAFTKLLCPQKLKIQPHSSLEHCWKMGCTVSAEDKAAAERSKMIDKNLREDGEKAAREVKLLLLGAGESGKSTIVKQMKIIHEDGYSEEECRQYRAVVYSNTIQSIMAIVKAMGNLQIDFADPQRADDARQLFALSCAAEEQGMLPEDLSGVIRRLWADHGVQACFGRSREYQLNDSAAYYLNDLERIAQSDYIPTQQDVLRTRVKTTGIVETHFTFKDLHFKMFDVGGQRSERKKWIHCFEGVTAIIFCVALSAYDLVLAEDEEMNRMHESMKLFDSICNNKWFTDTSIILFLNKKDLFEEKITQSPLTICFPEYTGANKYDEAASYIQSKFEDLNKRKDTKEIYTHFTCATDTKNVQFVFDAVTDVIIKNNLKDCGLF
Format: biochemical
Source text: This Example illustrates a representative assay for evaluating agonist-stimulated GTP-gamma^35S binding (“GTP binding”) activity. […] This agonist-stimulated GTP binding activity can also be used to detect partial agonism mediated by antagonist compounds. A compound analyzed in this assay is referred to herein as a “test compound.”
Four independent baculoviral stocks (one directing the expression of the chimeric human H3 receptor and three directing the expression of each of the three subunits of a heterotrimeric G-protein) are used to infect a culture of Sƒ9 cells as described above. P2 membranes are prepared as described above, and agonist-stimulated GTP binding on the P2 membranes is assessed using histamine (Sigma Chemical Co., St. Louis, Mo.) as agonist in order to ascertain that the receptor/G-protein-alpha-beta-gamma combination(s) yield a functional response as measured by GTP binding. P2 membranes are resuspended by Dounce homogenization (tight pestle) in GTP binding assay buffer (50 mM Tris pH 7.4, 120 mM NaCl, 5 mM MgCl2, 2 mM EGTA, 1 mg/ml BSA, 0.2 mg/ml bacitracin, 0.02 mg/ml aprotinin, 0.01 mg/ml saponin, 10 μM GDP) and added to assay tubes at a concentration of 35 μg protein/reaction tube. After adding increasing doses of histamine at concentrations ranging from 10-12 M to 10^−5 M, reactions are initiated by the addition of 125 pM GTP-gamma^35S (PERKIN ELMER; Boston, Mass.) with a final assay volume of 0.20 ml. In competition experiments, non-radiolabeled test compounds are added to separate reactions at concentrations ranging from 10^−10 M to 10^−6 M along with 1 μM histamine to yield a final volume of 0.20 ml.
Neutral antagonists are antagonists that are substantially free of inherent agonist activity, and include those test compounds that reduce the histamine-stimulated GTP binding activity towards, but not below, baseline levels. In contrast, in the absence of added histamine, inverse agonists reduce the GTP binding activity of the receptor-containing membranes below baseline.
After a 60-min incubation at room temperature, reactions are terminated by vacuum filtration over WHATMAN GF/C filters (pre-soaked in wash buffer, 0.1% BSA) followed by washing with ice-cold wash buffer (50 mM Tris pH 7.4, 120 mM NaCl). The amount of receptor-bound (and thereby membrane-bound) GTP-gamma^35S is determined by measuring the filter-bound radioactivity, preferably by liquid scintillation spectrometry of the washed filters. Non-specific binding is determined in parallel assays including 10 μM unlabeled GTP-gammaS and typically represents less than 5 percent of total binding. Data is expressed as percent above basal (baseline). The results of GTP binding experiments are analyzed using SIGMAPLOT software (SPSS Inc., Chicago, Ill.). IC50 values are calculated by non-linear regression analysis of dose-response curves using Kaleidograph (Synergy Software, Reading, Pa.).
Alternatively the data is analyzed as follows. First, the average bound radioactivity from negative control wells (no agonist) is subtracted from the bound radioactivity detected for each of the other experimental wells. Second, average bound radioactivity is calculated for the positive control wells (agonist wells). Then, percent inhibition for each compound tested is calculated using the equation: [formula]
Calculated IC50 values are converted to Ki values by the Cheng-Prusoff correction (Cheng and Prusoff (1973) Biochem. Pharmacol. 22(23):3099-3108). Accordingly, the following equation: Ki=IC50/(1+[L]/EC50) is used, where [L] is the histamine concentration in the GTP binding assay, and EC50 is the concentration of histamine producing a 50% response, as determined by a dose-response analysis using concentrations of histamine ranging from 10^−10 M to 10^−6 M. […]
Work on `CC(C)(C)N1CCN(c2ncnc3c2CCN(Cc2ccccc2)C3)CC1` [Compound 13, 7-benzyl-4-(4-tert-butylpiperazin-1-yl)-5,6,7,8-tetrahydropyrido[3,4-d]pyrimidine] yielded a Ki of less than 1000 nM. `c1ccc(CN2CCc3ncnc(N4CCN(C5CCC5)CC4)c3CC2)cc1` [Compound 142, 7-benzyl-4-(4-cyclobutylpiperazin-1-yl)-6,7,8,9-tetrahydro-5H-pyrimido[4,5-d]azepine] showed a Ki of less than 1000 nM. With `CC(=O)c1ccc(OCC(=O)N2CCc3ncnc(N4CCN(C5CCC5)CC4)c3CC2)cc1` [Compound 143, 1-(4-{2-[4-(4-cyclobutylpiperazin-1-yl)-5,6,8,9-tetrahydro-7H-pyrimido[4,5-d]azepin-7-yl]-2-oxoethoxy}phenyl)ethanone] the Ki was less than 1000 nM. `c1nc2c(c(N3CCN(C4CCC4)CC3)n1)CCNCC2` [Compound 144, 4-(4-cyclobutylpiperazin-1-yl)-6,7,8,9-tetrahydro-5H-pyrimido[4,5-d]azepine] gave a Ki of less than 1000 nM. Work on `c1ccc(CN2CCc3nc(N4CCN(C5CCC5)CC4)ncc3C2)cc1` [Compound 605, 6-benzyl-2-(4-cyclobutylpiperazin-1-yl)-5,6,7,8-tetrahydropyrido[4,3-d]pyrimidine] yielded a Ki of less than 1000 nM. `CCN1CCc2nc(N3CCN(C4CCC4)CC3)ncc2C1` [Compound 606, 2-(4-cyclobutylpiperazin-1-yl)-6-ethyl-5,6,7,8-tetrahydropyrido[4,3-d]pyrimidine] showed a Ki of less than 1000 nM. Compound `c1nc(N2CCN(C3CCC3)CC2)nc2c1CN(CC1CCCCC1)CC2` [Compound 607, 2-(4-cyclobutylpiperazin-1-yl)-6-(cyclohexylmethyl)-5,6,7,8-tetrahydropyrido[4,3-d]pyrimidine] has a Ki of less than 1000 nM. For `CC(=O)N1CCc2nc(N3CCN(C4CCC4)CC3)ncc2C1` [Compound 608, 6-acetyl-2-(4-cyclobutylpiperazin-1-yl)-5,6,7,8-tetrahydropyrido[4,3-d]pyrimidine], the Ki was less than 1000 nM.

Same assay, conditions: P2 membranes of Sf9 cells, 1 μM histamine as agonist; read-out: Ki in the assay of Example 7
`CC(=O)c1ccc(N2CCc3nc(N4CCN(C5CCC5)CC4)ncc3C2)cc1` [Compound 5, 1-{4-[2-(4-Cyclobutyl-piperazin-1-yl)-7,8-dihydro-5H-pyrido[4,3-d]pyrimidin-6-yl]-phenyl}-ethanone] was tested, and the Ki was less than 1000 nM. Work on `c1nc2c(c(N3CCN(C4CCC4)CC3)n1)CCN(CC1CCCCC1)CC2` [Compound 6, 4-(4-Cyclobutyl-piperazin-1-yl)-7-cyclohexylmethyl-6,7,8,9-tetrahydro-5H-pyrimido[3,4-d]azepine] yielded a Ki of less than 1000 nM. In the case of `CC(=O)c1ccc(N2CCc3ncnc(N4CCN(C5CCC5)CC4)c3CC2)cc1` [Compound 7, 1-{4-[4-(4-Cyclobutyl-piperazin-1-yl)-5,6,8,9-tetrahydro-pyrimido[4,5-d]azepin-7-yl]-phenyl}-ethanone], the Ki is reported as less than 1000 nM. Work on `O=C(c1ccccc1)N1CCc2ncnc(N3CCN(C4CCC4)CC3)c2CC1` [Compound 8, [4-(4-Cyclobutyl-piperazin-1-yl)-5,6,8,9-tetrahydro-pyrimido[4,5-d]azepin-7-yl]-phenyl-methanone] yielded a Ki of less than 1000 nM. `c1nc(N2CCN(C3CCC3)CC2)nc2c1CCN(CC1CCCCC1)CC2` [Compound 9, 2-(4-Cyclobutyl-piperazin-1-yl)-7-cyclohexylmethyl-6,7,8,9-tetrahydro-5H-pyrimido[4.5-d]azepine] gave a Ki of less than 1000 nM.

Same assay, conditions: assay of Example 7; symbol "*" in column headed Ki; read-out: Ki
`O=C(c1ccccc1)N1CCc2cnc(N3CCN(C4CCC4)CC3)nc2CC1` [Compound 183, 7-benzoyl-2-(4-cyclobutylpiperazin-1-yl)-6,7,8,9-tetrahydro-5H-pyrimido[4,5-d]azepine] showed a Ki of less than 1000 nM. `c1nc(N2CCN(C3CCC3)CC2)nc2c1CCN(C1CCC1)CC2` [Compound 590, 7-cyclobutyl-2-(4-cyclobutylpiperazin-1-yl)-6,7,8,9-tetrahydro-5H-pyrimido[4,5-d]azepine] showed a Ki of less than 1000 nM. `c1nc(N2CCN(C3CCC3)CC2)nc2c1CCN(C1CCOCC1)CC2` [Compound 591, 2-(4-cyclobutylpiperazin-1-yl)-7-(tetrahydro-2H-pyran-4-yl)-6,7,8,9-tetrahydro-5H-pyrimido[4,5-d]azepine] gave a Ki of less than 1000 nM. Work on `FC(F)(F)CN1CCc2cnc(N3CCN(C4CCC4)CC3)nc2CC1` [Compound 592, 2-(4-cyclobutylpiperazin-1-yl)-7-(2,2,2-trifluoroethyl)-6,7,8,9-tetrahydro-5H-pyrimido[4,5-d]azepine] yielded a Ki of less than 1000 nM. `COCCN1CCc2cnc(N3CCN(C4CCC4)CC3)nc2CC1` [Compound 593, 2-(4-cyclobutylpiperazin-1-yl)-7-(2-methoxyethyl)-6,7,8,9-tetrahydro-5H-pyrimido[4,5-d]azepine] showed a Ki of less than 1000 nM. In the case of `FC1(F)CCC(CN2CCc3cnc(N4CCN(C5CCC5)CC4)nc3CC2)CC1` [Compound 594, 2-(4-cyclobutylpiperazin-1-yl)-7-[(4,4-difluorocyclohexyl)methyl]-6,7,8,9-tetrahydro-5H-pyrimido[4,5-d]azepine], the Ki is reported as less than 1000 nM. With `FC(F)(F)CCN1CCc2cnc(N3CCN(C4CCC4)CC3)nc2CC1` [Compound 595, 2-(4-cyclobutylpiperazin-1-yl)-7-(3,3,3-trifluoropropyl)-6,7,8,9-tetrahydro-5H-pyrimido[4,5-d]azepine] the Ki was less than 1000 nM. `CC1CCC[C@@H]2CN(c3ncc4c(n3)CCN(C3CCC3)CC4)CCN12` (some centres unmarked) [Compound 596, 7-cyclobutyl-2-(6-methyloctahydro-2H-pyrido[1,2-a]pyrazin-2-yl)-6,7,8,9-tetrahydro-5H-pyrimido[4,5-d]azepine] was tested, and the Ki was less than 1000 nM. Work on `CC1CCC[C@@H]2CN(c3ncc4c(n3)CCN(CC3CCOCC3)CC4)CCN12` (some centres unmarked) [Compound 597, 2-(6-methyloctahydro-2H-pyrido[1,2-a]pyrazin-2-yl)-7-(tetrahydro-2H-pyran-4-ylmethyl)-6,7,8,9-tetrahydro-5H-pyrimido[4,5-d]azepine] yielded a Ki of less than 1000 nM. Work on `CCN1CCN(c2ncc3c(n2)CCN(CC2CCOCC2)CC3)CC1` [Compound 598, 2-(4-ethylpiperazin-1-yl)-7-(tetrahydro-2H-pyran-4-ylmethyl)-6,7,8,9-tetrahydro-5H-pyrimido[4,5-d]azepine] yielded a Ki of less than 1000 nM. `CCN1CCN(c2ncc3c(n2)CCN(C2CCC2)CC3)CC1` [Compound 599, 7-cyclobutyl-2-(4-ethylpiperazin-1-yl)-6,7,8,9-tetrahydro-5H-pyrimido[4,5-d]azepine] gave a Ki of less than 1000 nM. In the case of `CC(=O)N1CCN(c2ncc3c(n2)CCN(C2CCC2)CC3)CC1` [Compound 600, 2-(4-acetylpiperazin-1-yl)-7-cyclobutyl-6,7,8,9-tetrahydro-5H-pyrimido[4,5-d]azepine], the Ki is reported as less than 1000 nM. For `CC(C)(C)OC(=O)N1CCN(c2ncc3c(n2)CCN(C2CCC2)CC3)CC1` [Compound 601, tert-butyl 4-(7-cyclobutyl-6,7,8,9-tetrahydro-5H-pyrimido[4,5-d]azepin-2-yl)piperazine-1-carboxylate], the Ki was less than 1000 nM. `FC(F)(F)CN1CCN(c2ncc3c(n2)CCN(C2CCC2)CC3)CC1` [Compound 602, 7-cyclobutyl-2-[4-(2,2,2-trifluoroethyl)piperazin-1-yl]-6,7,8,9-tetrahydro-5H-pyrimido[4,5-d]azepine] was tested, and the Ki was less than 1000 nM. In the case of `CNC(=O)c1ccc(N2CCN(c3ncc4c(n3)CCN(CC3CCOCC3)CC4)CC2)nc1` [Compound 603, N-methyl-6-{4-[7-(tetrahydro-2H-pyran-4-ylmethyl)-6,7,8,9-tetrahydro-5H-pyrimido[4,5-d]azepin-2-yl]piperazin-1-yl}nicotinamide], the Ki is reported as less than 1000 nM. Work on `CNC(=O)c1ccc(N2CCN(c3ncc4c(n3)CCN(C3CCC3)CC4)CC2)nc1` [Compound 604, 6-[4-(7-cyclobutyl-6,7,8,9-tetrahydro-5H-pyrimido[4,5-d]azepin-2-yl]piperazin-1-yl]-N-methylnicotinamide] yielded a Ki of less than 1000 nM.
